Experimental data as given in US12286632B2, “Rationally-designed synthetic peptide shuttle agents for delivering polypeptide cargos from an extracellular space to the cytosol and/or nucleus of a target eukaryotic cell, uses thereof, methods and kits relating to same” (Feldan Bio Inc., priority 2016, dated 2025).

Columns and labels:
Balb3T3 cells = test: GFP-NLS transduction in different adherent and suspension cells (flow cytometry, Pos cells % and viability %); type: cell-based; details: Protocol B, 35 μM shuttle, 5 μM GFP-NLS, 10 seconds
Description: (§1) The media in wells was removed, cells were washed once with PBS previously warmed at 37° C., and the shuttle agent/cargo mixture was then added to cover all cells for the desired length of time. The shuttle agent/cargo mixture in wells was removed, the cells were washed once with PBS, and fresh complete medium was added. Before analysis, the cells were washed once with PBS and fresh complete medium was added.
(§2) The ability of the shuttle agent His-CM18-PTD4 to deliver GFP-NLS to the nuclei of different adherent and suspension cells using Protocols B (adherent cells) or C (suspension cells) as described in Example 9.1 was examined. The cell lines tested included: HeLa, Balb3T3, HEK 293T, CHO, NIH3T3, Myoblasts, Jurkat, THP-1, CA46, and HT2 cells, which were cultured as described in Example 1. GFP-NLS (5 μM; see Example 5.1) was co-incubated with 35 μM of His-CM18-PTD4 and exposed to adherent cells for 10 seconds (Protocol B), or was co-incubated with 5 μM of His-CM18-PTD4 and exposed to suspension cells for 15 seconds (Protocol C). […] “Pos cells (%)” is the mean percentages of all cells that emanate a GFP signal.

NIH3T3 cells = test: as above; type: cell-based; details: Protocol B, 35 μM shuttle, 5 μM GFP-NLS, 10 seconds
Description: as §1, §2

HEK 293T cells = test: as above; type: cell-based, Human; details: Protocol B, 35 μM shuttle, 5 μM GFP-NLS, 10 seconds
Description: as §1, §2

Myoblasts = test: as above; type: cell-based, Human; details: Protocol B, 35 μM shuttle, 5 μM GFP-NLS, 10 seconds
Description: as §1, §2

HT2 cells = test: as above; type: cell-based; details: Protocol C, 5 μM shuttle, 5 μM GFP-NLS, 15 seconds
Description: as §2

PPIB gene = test: T7E1 DNA cleavage assay after CRISPR/Cas9-NLS delivery, HeLa cells; type: cell-based, Human; details: shuttle 10 μM; Cas9-NLS 25 nM; HeLa cells 16 h, medium without serum
Description: The T7 endonuclease I (T7E1) can be used to detect on-target CRISPR/Cas genome editing events in cultured cells. As an overview, genomic DNA from target cells is amplified by PCR. The PCR products are then denatured and reannealed to allow heteroduplex formation between wild-type DNA and CRISPR/Cas-mutated DNA. T7E1, which recognizes and cleaves mismatched DNA, is used to digest the heteroduplexes. The resulting cleaved and full-length PCR products are visualized by gel electrophoresis.
The T7E1 assay was performed with the Edit-R™ Synthetic crRNA Positive Controls (Dharmacon #U-007000-05) and the T7 Endonuclease I (NEB, Cat #M0302S). After the delivery of the CRISPR/Cas complex, cells were lysed in 100 μL of Phusion™ High-Fidelity DNA polymerase (NEB #M0530S) laboratory with additives. The cells were incubated for 15-30 minutes at 56° C., followed by deactivation for 5 minutes at 96° C. The plate was briefly centrifuged to collect the liquid at bottom of the wells. 50-μL PCR samples were set up for each sample to be analyzed. The PCR samples were heated to 95° C. for 10 minutes and then slowly (>15 minutes) cooled to room temperature. PCR product (-5 μL) was then separated on an agarose gel (2%) to confirm amplification. 15 μL of each reaction was incubated with T7E1 nuclease for 25 minutes at 37° C. […]

HeLa cells = test: HOXB4-WT transduction, immuno-labelling and visualization by microscopy; type: cell-based, Human; details: HOXB4-WT 25 μM; shuttle 35 μM; 10 seconds, Protocol B
Description: Adherent cells were plated on a sterile glass strip at 1.5×10^5 cells per well in a 24-plate well and incubated overnight at 37° C. For fixation, cells were incubated in 500 μL per well of formaldehyde (3.7% v/v) for 15 minutes at room temperature, and washed 3 times for 5 minutes with PBS. For permeabilization, cells were incubated in 500 μL per well of Triton™ X-100 (0.2%) for 10 minutes at room temperature, and washed 3 times for 5 minutes with PBS. For blocking, cells were incubated in 500 μL per well of PBS containing 1% BSA (PBS/BSA) for 60 minutes at room temperature. Primary mouse monoclonal antibody was diluted PBS/BSA (1%). Cells were incubated in 30 μL of primary antibody overnight at 4° C. Cells were washed 3 times for 5 minutes with PBS. Secondary antibody was diluted in PBS/BSA (1%) and cells were incubated in 250 μL of secondary antibody 30 minutes at room temperature in the dark. Cells were washed 3 times for 5 minutes with PBS. […]
Recombinant HOXB4-WT transcription factor (25 μM; Example 14.1) was co-incubated with 35 μM of His-CM18-PTD4 and exposed to HeLa cells for 10 seconds using Protocol B as described in Example 9.1. […] The cells were visualized by bright field and fluorescence microscopy at 20× and 40× magnifications as described in Example 3.2, and sample results are shown in FIG. 45. […]

Compound: CC[C@H](C)[C@H](NC(=O)[C@H](CCCCN)NC(=O)[C@H](CCCCN)NC(=O)[C@H](Cc1ccccc1)NC(=O)[C@H](CC(C)C)NC(=O)[C@H](CCCCN)NC(=O)[C@H](Cc1c[nH]c2ccccc12)NC(=O)[C@H](CCCCN)NC(=O)[C@H](Cc1c[nH]cn1)NC(=O)[C@H](Cc1c[nH]cn1)NC(=O)[C@H](Cc1c[nH]cn1)NC(=O)[C@H](Cc1c[nH]cn1)NC(=O)[C@H](Cc1c[nH]cn1)NC(=O)[C@@H](N)Cc1c[nH]cn1)C(=O)NCC(=O)N[C@@H](C)C(=O)N[C@H](C(=O)N[C@@H](CC(C)C)C(=O)N[C@@H](CCCCN)C(=O)N[C@H](C(=O)N[C@@H](CC(C)C)C(=O)N[C@H](C(=O)N[C@H](C(=O)NCC(=O)N[C@@H](Cc1ccc(O)cc1)C(=O)N[C@@H](C)C(=O)N[C@@H](CCCNC(=N)N)C(=O)N[C@@H](C)C(=O)N[C@@H](C)C(=O)N[C@@H](C)C(=O)N[C@@H](CCCNC(=N)N)C(=O)N[C@@H](CCC(N)=O)C(=O)N[C@@H](C)C(=O)N[C@@H](CCCNC(=N)N)C(=O)N[C@@H](C)C(=O)O)[C@@H](C)O)[C@@H](C)O)C(C)C)C(C)C [His-CM18-PTD4]
- Cell viability (%) (±St. Dev.; n = 3) (Balb3T3 cells): 98.4 ± 0.6%
- Mean % cells with GFP signal (±St. Dev.; n = 3) (Balb3T3 cells): 40.2 ± 3.1%
- Cell viability (%) (±St. Dev.; n = 3) (NIH3T3 cells): 3.3 ± 5.4%
- Mean % cells with GFP signal (±St. Dev.; n = 3) (NIH3T3 cells): 35.4 ± 3.9%
- Cell viability (%) (±St. Dev.; n = 3) (HEK 293T cells): 95.3 ± 1.2%
- Mean % cells with GFP signal (±St. Dev.; n = 3) (HEK 293T cells): 55.3 ± 0.2%
- Cell viability (%) (±St. Dev.; n = 3) (Myoblasts): 23.5 ± 1.1%
- Mean % cells with GFP signal (±St. Dev.; n = 3) (Myoblasts): 25.6 ± 2.6%
- Cell viability (%) (±St. Dev.; n = 3) (HT2 cells): 90.6 ± 1.5%
- Mean % cells with GFP signal (±St. Dev.; n = 3) (HT2 cells): 30.5 ± 2.5%
- delivery of functional CRISPR/Cas9 complex, cleavage of genomic PPIB (in words) (PPIB gene): successfully deliver a functional CRISPR/Cas9 complex to the nucleus of HeLa cells
- HOXB4-WT nuclear delivery (immuno-labelling) (HeLa cells): HOXB4-WT was successfully delivered to the nucleus after 30 min
